Reference: patent publication US20180296551A1, “METHODS AND COMPOSITIONS FOR TREATING NEURODEGENERATIVE DISEASES” (priority 2015, published 2018)

Legend:
SOD1-G93A mice [1] = assay: Survival (time taken until death) of SOD1-G93A mice; assay type: in vivo
Description: Experimental set-up: 50 day old female SOD1-G93A mice were treated with either 5 mg/kg AMD3100 alone, 896 mg/kg Na-L-lactate alone or a combination of […] AMD3100 and 896 mg/kg Na-L-lactate twice a week, starting at 50 days old (for ALS), until death. All treatments were administered subcutaneously. The mice were weighed once a week following the various treatments and tested for motor function, also once a week. The time taken until death was recorded.
Experimental set-up: 50 day old female SOD1-G93A mice were treated with either 5 mg/kg AMD3100 alone or a complex of 0.25 mg/kg AMD3100+0.08 mg/kg Zinc or 0.125 mg/kg AMD3100+0.04 mg/kg Zinc twice a week, starting at 50 days old until death. All treatments were administered subcutaneously. The mice were weighed once a week following the various treatments and tested for motor function, also once a week. The time taken until death was recorded.
Experimental set-up: 50 day old male SOD1-G93A mice were treated with either 5 mg/kg AMD3100 alone or a complex of 0.5 mg/kg AMD3100+0.17 mg/kg Zinc+896 mg/kg lactate twice a week, starting at 50 days old, till death. All treatments were administered subcutaneously. The time taken until death was recorded.

AP = AP by ELISA in 3×Tg-AD mice; assay type: in vivo; details: membrane fraction, 0.5 mg/kg AMD3100 (+0.17 mg/kg Zn+896 mg/kg lactate), vs PBS
Description: Experimental set-up: 9 month old 3×Tg-AD mice were treated with PBS or 0.5 mg/kg AMD3100 or 0.5 mg/kg AMD3100 0.17 mg/kg Zn or 0.5 mg/kg AMD3100+0.17 mg/kg Zn+896 mg/kg lactate once a week. All treatments were administered subcutaneously. After 3 month of treatment, all mice were subjected to Y maze test in order to evaluate their cognitive function. Each mouse was allowed to explore two arms of the Y maze for 5 min, rested for another 5 min, and then explored all 3 arms of the Y maze for another 5 min.

MCT1 = details: female SOD1-G93A mice; 5 mg/kg AMD3100; spinal cord (FIG. 4A); vs control
Description: The control group is set to 100%. Results are mean ±S.E.M, T-test; *p<0.05.

SOD1-G93A mice [2] = details: SOD1-G93A transgenic mice; previously shown; cited from earlier work
SOD1-G93A mice [3] = details: SOD1-G93A transgenic mice; previously shown; cited from earlier work; remark: listed apart in the source
SOD1-G93A mice [4] = details: SOD1-G93A transgenic mice; previously shown; cited from earlier work; remark: listed apart in the source

SMILES	median survival (SOD1-G93A mice [1]; female SOD1-G93A mice, 5 mg/kg AMD3100 s.c. twice a week from 50 days old) [days]	median survival (SOD1-G93A mice [1]; male SOD1-G93A mice, 5 mg/kg AMD3100 s.c. twice a week from 50 days old) [days]	AP change by ELISA (AP)	MCT1 levels (MCT1)	survival (in words) (SOD1-G93A mice [2])	motor function (in words) (SOD1-G93A mice [3])	disease onset (in words) (SOD1-G93A mice [4])	median survival (SOD1-G93A mice [1]; female SOD1-G93A mice, 896 mg/kg lactate s.c. twice a week from 50 days old) [days]
c1cc(CN2CCCNCCNCCCNCC2)ccc1CN1CCCNCCNCCCNCC1 [AMD3100, 1,1′-[1,4-phenylenebis(methylene)]bis [1,4,8,11-tetraazacyclotetradecane]]	144	140	Reduction in AP was statistically significant	increase	significantly increased	improved	delayed	–
C[C@H](O)C(=O)[O-].[Na+] [lactate, Na-L-lactate]	–	–	–	–	–	–	–	148
